One data set relates to unmodified DM-PaDDAH. The conditions noted are these: estimated previously for unmodified DM-PaDDAH; cited from earlier work.
In data set [1] the target is T1, MDCC-Ser20Cys DM-PaDDAH (fl-DM-PaDDAH) (Pseudomonas aeruginosa, UniProt Q9I4E3, R40E/R98H/S20C).
T1 construct: the 254 residue DM-PaDDAH; polyhistidine (cleaved yes); made in house; host or cells: Escherichia coli BL21 (DE3)
T1 sequence (Q9I4E3 1-254 S20C/R40E/R98H): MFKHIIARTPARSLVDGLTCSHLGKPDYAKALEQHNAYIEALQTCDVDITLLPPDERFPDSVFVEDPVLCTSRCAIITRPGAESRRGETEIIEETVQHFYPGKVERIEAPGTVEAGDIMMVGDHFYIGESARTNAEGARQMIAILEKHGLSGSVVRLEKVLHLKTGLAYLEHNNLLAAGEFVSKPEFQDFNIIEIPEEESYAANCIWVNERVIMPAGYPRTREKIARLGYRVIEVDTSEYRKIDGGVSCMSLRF
In words: Stopped-flow fluorescence binding kinetics with fl-DM-PaDDAH. As for the experimental part:
(§1) Stopped-flow experiments were carried out in buffer A at 25 °C using a HiTech SF61 DX2 stopped-flow instrument equipped with a Xe/Hg lamp (TgK Scientific, UK). MDCC fluorescence was excited at 436 nm, and emission was detected by a photomultiplier after a 455 nm cutoff filter (Schott glass). Protein (1 μM) was mixed with the ligand (ADMA or L-citrulline) at various concentrations up to 4 mM. In the mixing cell, concentrations were half these. Each fluorescence time course was fitted to a single exponential function [drawing 1] with the observed first-order rate constant, kobs, and maximum fluorescence change, ΔFmax.
(§2) For mixing L-citrulline with MDCC-Ser20Cys TM-PaDDAH (fl-TM-PaDDAH), the dependence of kobs on L-citrulline concentration ([L-cit]) was linearly fitted for the association reaction: [drawing 2] [drawing 3] For the mixing of L-citrulline with MDCC-Ser20Cys DM-PaDDAH (fl-DM-PaDDAH) conversion of the substrate to products is included, using this reaction scheme: [drawing 4] [drawing 5] where kcat is the rate constant for the conversion of the enzyme–substrate complex to dissociated products. Under the pseudo-first-order conditions of the experiment, where the change in fluorescence was attributed to the formation of the fl-DM-PaDDAH/ADMA complex, the dependence of kobs on ADMA concentration was fitted to a straight-line graph: [drawing 6]

Data set [2] has as its target T2, MDCC-Ser20Cys TM-PaDDAH (fl-TM-PaDDAH) (Pseudomonas aeruginosa, UniProt Q9I4E3, C249S/R40E/R98H/S20C).
T2 construct: polyhistidine (cleaved yes); made in house; host or cells: Escherichia coli BL21 (DE3)
T2 sequence (Q9I4E3 1-254 S20C/R40E/R98H/C249S): T1 sequence (Q9I4E3 1-254 S20C/R40E/R98H) with C249S
In words: MDCC fluorescence titration, Ser20Cys variant. It counts as binding. The procedure:
(§3) DM- or TM-PaDDAH constructs were mutated to contain an additional, solvent-exposed Cys residue at residue positions corresponding to Thr19, Ser 20, Ser84, and Asp244. Following expression, the purified proteins were each incubated in buffer A with 1 mM dithiothreitol (DTT) for 0.5 h. The sample was then passed through a desalting PD-10 column (GE Healthcare) in buffer A and concentrated to 100 μM. N-[2-(1-Maleimidyl)ethyl]-7-(diethylamino)coumarin-3-carboxamide (MDCC)[32] dissolved in DMF (20 mM) was added to a 2-fold excess, and the solution was incubated for 1 h. The reaction mixture was passed again through a fresh desalting column to remove unreacted label. The labeled protein concentration was measured by spectrophotometry (ε430 (MDCC) = 46 800 M^–1 cm^–1, ε280(MDCC) = 7470 M^–1 cm^–1, ε280(PaDDAH) = 18 910 M^–1 cm^–1). Formation of the product was assessed by electrospray ionization mass spectrometry.
(§4) PaDDAH fluorescence spectra were measured at 25 °C on an FP-6300 spectrofluorometer (Jasco Ltd.) in buffer A. MDCC fluorescence was excited at 430 nm and emission was recorded at 476 nm. The change in fluorescence emission intensity with ligand concentration was fit to a 1:1 binding isotherm using nonlinear least-squares Python code written in-house.

Another data set has as its target T3, TM-PaDDAH (Pseudomonas aeruginosa, UniProt Q9I4E3, C249S/R40E/R98H).
T3 construct: polyhistidine (cleaved yes); made in house; host or cells: Escherichia coli BL21 (DE3)
T3 sequence (Q9I4E3 1-254 R40E/R98H/C249S): T1 sequence (Q9I4E3 1-254 S20C/R40E/R98H) with C20S, C249S
In words: Substrate conversion by TM-PaDDAH observed by 1D 1H NMR. To be noted: conversion of ADMA to DMA and L-citrulline, high TM-PaDDAH concentration, over hours. It counts as biochemical. The procedure: (§5) For NMR measurements, the protein samples were prepared at 0.8 mM concentration (for resonance assignments and relaxation measurements) or 0.3 mM (for ligand titrations) in buffer A, supplemented with 10% v/v D2O. Saturating concentrations of L-citrulline were included in the bound state samples: 15 mM for DM-PaDDAH and 1.0 mM for TM-PaDDAH. A variety of NMR spectrometers were used during this work: resonance assignments were obtained from 3D triple resonance data sets (HNCA, HNCACB, CBCACONH, HNCO, HN(CA)CO)[12] obtained at either 600 or 700 MHz ^1H frequency. Two-dimensional ^15N, ^1H-HSQC experiments to monitor ligand binding were recorded using a 700 MHz instrument. ^15N relaxation measurements[13],[14] were performed at both 600 and 800 MHz. The majority of the data sets were recorded using a cryogenically cooled triple resonance probe, with the sample temperature maintained at a calibrated 25 °C. The pulse sequences employed H2O-selective “flip-back” pulses and WATERGATE to minimize the effects of H^N-resonance cross-saturation.[15],[16] Ligand-induced chemical shift perturbations differences for ligand titrations were computed using the formula Δδ = [(Δδ^1H^N)^2 + (Δδ^15N/5)^2]^1/2.

The target in data set [3] is T4, TM-PaDDAH (Arg40Glu/Arg98His/Cys249Ser triple mutant PaDDAH) (Pseudomonas aeruginosa, UniProt Q9I4E3, C249S/R40E/R98H).
T4 construct: polyhistidine (cleaved yes); made in house; host or cells: Escherichia coli BL21 (DE3)
T4 sequence (Q9I4E3 1-254 R40E/R98H/C249S): T1 sequence (Q9I4E3 1-254 S20C/R40E/R98H) with C20S, C249S
Nature of the data set: NMR 15N,1H-HSQC ligand titration of TM-PaDDAH. The data set is classed as binding. The conditions noted are these: NMR peak intensity titration (Gly24, Glu158, Lys159), 0.3 mM TM-PaDDAH, 25 °C; read-out: dissociation constant KD^(TM/L-cit). The procedure: as §5

The target in a further data set is T5, MDCC-Ser84Cys TM-PaDDAH (Pseudomonas aeruginosa, UniProt Q9I4E3, C249S/R40E/R98H/S84C).
T5 construct: polyhistidine (cleaved yes); made in house; host or cells: Escherichia coli BL21 (DE3)
T5 sequence (Q9I4E3 1-254 R40E/S84C/R98H/C249S): T1 sequence (Q9I4E3 1-254 S20C/R40E/R98H) with C20S, S84C, C249S
In words: MDCC fluorescence titration, Ser84Cys variant. The conditions noted are these: static MDCC fluorescence titration, 25 °C, buffer A; fluorescence decreased; read-out: equilibrium dissociation constant. It counts as binding. The procedure: as §3, §4

Data set [4] concerns the target T2, MDCC-Ser20Cys TM-PaDDAH (fl-TM-PaDDAH). Nature of the data set: Stopped-flow fluorescence binding kinetics with fl-TM-PaDDAH. As for the experimental part:
as §1, §2

For data set [5], the target named is T6, DM-PaDDAH (Arg40Glu/Arg98His double mutant PaDDAH) (Pseudomonas aeruginosa, UniProt Q9I4E3, R40E/R98H).
T6 construct: the 254 residue DM-PaDDAH; polyhistidine (cleaved yes); made in house; host or cells: Escherichia coli BL21 (DE3)
T6 sequence (Q9I4E3 1-254 R40E/R98H): T1 sequence (Q9I4E3 1-254 S20C/R40E/R98H) with C20S
Nature of the data set: NMR 15N,1H-HSQC ligand titration of DM-PaDDAH. It counts as binding. To be noted: for binding of byproduct to the protein by NMR titration: separate NMR titrations. As for the experimental part: as §5

A further data set deals with T7, MDCC-Asp244Cys TM-PaDDAH (Pseudomonas aeruginosa, UniProt Q9I4E3, C249S/D244C/R40E/R98H).
T7 construct: polyhistidine (cleaved yes); made in house; host or cells: Escherichia coli BL21 (DE3)
T7 sequence (Q9I4E3 1-254 R40E/R98H/D244C/C249S): T1 sequence (Q9I4E3 1-254 S20C/R40E/R98H) with C20S, D244C, C249S
Nature of the data set: MDCC fluorescence titration, Asp244Cys variant. The data set is classed as binding. The conditions noted are these: static MDCC fluorescence titration, 25 °C, buffer A; fluorescence decreased; read-out: equilibrium dissociation constant. As for the experimental part: as §3, §4

Another data set has as its target wild-type PaDDAH. To be noted: wild-type protein; read-out: Ki^(L-cit); cited from earlier work.
The next data set deals with T8, MDCC-Thr19Cys TM-PaDDAH (Pseudomonas aeruginosa, UniProt Q9I4E3, C249S/R40E/R98H/T19C).
T8 construct: polyhistidine (cleaved yes); made in house; host or cells: Escherichia coli BL21 (DE3)
T8 sequence (Q9I4E3 1-254 T19C/R40E/R98H/C249S): T1 sequence (Q9I4E3 1-254 S20C/R40E/R98H) with T19C, C20S, C249S
In words: MDCC fluorescence titration, Thr19Cys variant. To be noted: static MDCC fluorescence titration, 25 °C, buffer A; fluorescence decreased; read-out: equilibrium dissociation constant. It counts as binding. The procedure: as §3, §4

In a further data set the target is Cys249 (UniProt position 249, DGGVSCMSLRF). To be noted: ligand-free (absence of ligand); cited from earlier work.

Positions count from the first letter of the chain named. “Also recorded” adds a separate entry of the source.

In the case of `CN(C)C(=N)NCCCC(N)C(=O)O` (stereo not drawn) [ADMA, asymmetric N^η,N^η-dimethylarginine], the kcat in the data set with unmodified DM-PaDDAH is 0.5 s^–1. The “binding tighter than for the reaction product L-citrulline” value in data set [1] (KD^(DM/ADMA) versus KD^(DM/L-cit)) is given as 30 fold. In [1] (assuming kcat = 0.5 s^–1), the “koff^(DM/ADMA)” value worked out at 2.0 s^–1. For the same compound, in data set [1] (stopped-flow, linear fit of kobs vs concentration, 25 °C), the “kon^(DM/ADMA)” value is reported as 1.8 × 10^5 M^–1 s^–1. The “fluorescence response / binding of substrate to fl-TM-PaDDAH” value in data set [2] (low protein concentrations of fluorescence experiments) is given as “no fluorescence change; also recorded: no evidence of substrate binding or turnover”. Moreover, the “catalytic activity of the mutant enzyme” value at TM-PaDDAH is reported as ~0.04 h^–1.

What is called Ki is a dissociation constant, usually derived from enzyme kinetics or from competition with a known ligand. Turning to `NC(=O)NCCC[C@H](N)C(=O)O` [L-citrulline], the Kd in [3] is 3.5 ± 1.5 µM; at MDCC-Ser84Cys TM-PaDDAH, 15.7 ± 2.8 µM; in data set [4] (from stopped-flow binding kinetics, read-out: predicted equilibrium dissociation constant KD^(TM/L-cit) (= koff/kon)), 8.4 µM; in data set [2] (static MDCC fluorescence titration, 25 °C, buffer A, fluorescence increased, read-out: equilibrium dissociation constant) it was 7.2 ± 1.6 µM; in data set [5] (NMR chemical shift titration, 0.3 mM DM-PaDDAH, 1:1 model, buffer A pH 7.0, 25 °C, read-out: dissociation constant KD^(DM/L-cit)), 3600 ± 100 µM; at MDCC-Asp244Cys TM-PaDDAH, 23.5 ± 2.7 µM. Moreover, the Kd on MDCC-Thr19Cys TM-PaDDAH is 10.8 ± 1.1 µM. Moreover, the “fluorescence signal for binding to fl-DM-PaDDAH” value in data set [1] is recorded as “no signal for binding”. The koff in data set [4] (stopped-flow, linear fit of kobs vs concentration, 25 °C, read-out: koff^(TM/L-cit)) is 0.86 s⁻¹; in [5] (from NMR KD and assumed kon similar to kon^(TM/L-cit) and kon^(DM/ADMA), read-out: koff^(DM/L-cit) predicted) it was ~500 s⁻¹. The kon in data set [4] (stopped-flow, linear fit of kobs vs concentration, 25 °C, read-out: kon^(TM/L-cit)) turned out to be 100000 M⁻¹ s⁻¹. In addition, the Ki at wild-type PaDDAH was 8400 µM.

Turning to `CNC` [dimethylamine], the “binding of byproduct to the protein by NMR titration” value in data set [5] is recorded as “did not detectably bind”.

Turning to `CN` [methylamine], in [5], the “binding of byproduct to the protein by NMR titration” value was “did not detectably bind”.

One may read the pKa as the pH at which an ionisable group is half protonated. With “Dimethylarginine dimethylaminohydrolase (PaDDAH) (Pseudomonas aeruginosa)”, the pKa with Cys249 was 8.8.

The values above are taken from publication PMC3945819, “Ligand-Dependent Dynamics of the Active-Site Lid in Bacterial Dimethylarginine Dimethylaminohydrolase” (Biochemistry, 2014).
